Experiment [1] concerns the target HCV NS3 protease genotype 3a (3A-1) (Hepatitis C virus genotype 3a, UniProt Q81258). In words: HCV NS3 protease time-resolved fluorescence (TRF) assay, genotype 3a. Type of experiment: biochemical. The conditions noted are these: Ki 3a. In outline: (§1)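 Steps: compound plus NS3/NS4A enzyme for 10 minutes; add peptide substrate to 25 nM; let cleavage proceed 6 hours at room temperature; read product fluorescence (340 nm excitation, 615 nm emission, delayed 400 μs). Enzyme levels gave signal/background 5-20.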

For experiment [2], the target named is T1, HCV genotype 1b (BK) NS3 modified enzyme with a R155K mutation (Hepatitis C virus genotype 1b, UniProt P26663, R1181K).
T1 construct: HCV genotype 1b (BK) NS3 modified enzyme
In words: HCV NS3 protease time-resolved fluorescence (TRF) assay, genotype 1b R155K. The format is biochemical. The settings on record: Ki 1b R155K, genotype 1b (BK) NS3 R155K; single value. In outline:
as §1

For the compound `C=C[C@@H]1C[C@]1(NC(=O)[C@@H]1C[C@@H]2CN1C(=O)[C@H](C1CCCC1)NC(=O)O[C@@H]1CCC[C@H]1CCCCCc1c(nc3ccccc3c1OCCN1CC3CCC1C3)O2)C(=O)NS(=O)(=O)C1CC1` [Example 60, (3aR,7S,10S,12R,24aR)-19-[2-(2-azabicycle [2.2.1]hept-2-yl)ethoxy]-7-cyclo pentyl-N-{(1R,2S)-1-[(cyclopropylsulfonyl)carbamoyl]-2-ethenylcyclopropyl}-5,8-dioxo-1,2,3,3a,5,6,7,8,11,12,20,21,22,23,24,24a-hexadecahydro-10H-9,12-methanocyclopenta [18,19][1,10,3,6]dioxadiazacyclononadecino [11,12-b]quinoline-10-carboxamide], the Ki in experiment [1] worked out at 12 nM; in experiment [2], 0.61 nM.
The corresponding values for `C=C[C@@H]1C[C@]1(NC(=O)[C@@H]1C[C@@H]2CN1C(=O)[C@H](C(C)(C)C)NC(=O)O[C@@H]1CCC[C@H]1CCCCCc1c(nc3ccccc3c1OCCN1CCOCC1)O2)C(=O)NS(=O)(=O)C1(COC)CC1` [Example 61, (3aR,7S,10S,12R,24aR)-7-tert-butyl-N-[(1R,2S)-2-ethenyl-1-({[1-(methoxymethyl)cyclopropyl]sulfonyl}carbamoyl)cyclopropyl]-19-[2-(morpholin-4-yl)ethoxy]-5,8-dioxo-1,2,3,3a,5,6,7,8,11,12,20,21,22,23,24,24a-hexadecahydro-10H-9,12-methanocyclopenta[18,19][1,10,3,6]dioxadiazacyclononadecino[11,12-b]quinoline-10-carboxamide] are 20 nM and 0.7 nM.
The like results for `C=CC1C[C@]1(NC(=O)[C@@H]1C[C@@H]2CN1C(=O)[C@H](C(C)(C)C)NC(=O)O[C@@H]1CCC[C@H]1CCCCCc1c(nc3ccccc3c1OCCN1CCOCC1)O2)C(=O)NS(=O)(=O)C1(C(=C)C)CC1` (some centres unmarked) [Example 62] were, in that order, 85 nM and 1.6 nM.
The like results for `C=C[C@@H]1C[C@]1(NC(=O)[C@@H]1C[C@@H]2CN1C(=O)[C@H](C(C)(C)C)NC(=O)O[C@@H]1CCC[C@H]1CCCCCc1c(nc3ccccc3c1OCCN(C)C)O2)C(=O)NS(=O)(=O)C1(COC)CC1` [Example 63, (3aR,7S,10S,12R, 24aR)-7-tert-butyl-19-[2-(dimethylamino)ethoxy]-N-[(1R,2S)-2-ethenyl-1-({[1-(methoxymethyl)cyclopropyl]sulfonyl}carbamoyl)cyclopropyl]-5,8-dioxo-1,2,3,3a, 5,6,7,8,11,12,20, 21,22,23,24,24a-hexadecahydro-10H-9,12-methanocyclopenta [18,19][1,10,3,6]dioxa-diazacyclononadecino [11,12-b]quinoline-10-carboxamide] were, in that order, 7.2 nM and 0.35 nM.
As for `C=C[C@@H]1C[C@]1(NC(=O)[C@@H]1C[C@@H]2CN1C(=O)[C@H](C(C)(C)C)NC(=O)O[C@@H]1CCC[C@H]1CCCCCc1c(nc3ccccc3c1OCCCN1CCOCC1)O2)C(=O)NS(=O)(=O)C1(COC)CC1` [Example 64, (3aR,7S,10S,12R, 24aR)-7-tert-butyl-N-[(1R,2S)-2-ethenyl-1-({[1-(methoxymethyl)cyclopropyl]sulfonyl}carbamoyl)cyclopropyl]-19-[3-(morpholin-4-yl)propoxy]-5,8-dioxo-1,2,3,3a,5,6,7,8, 11,12,20,21,22,23,24, 24a-hexadecahydro-10H-9,12-methanycyclopenta [18,19][1,10,3,6] dioxadiazacyclo-nonadecino [11,12-b]quinoline-10-carboxamide], the figures for the Ki in experiment [1] and in experiment [2] were 5.5 nM and 0.43 nM, respectively.
The corresponding values for `C=CC1C[C@]1(NC(=O)[C@@H]1C[C@@H]2CN1C(=O)[C@H](C(C)(C)C)NC(=O)O[C@@H]1CCC[C@H]1CCCCCc1c(nc3ccccc3c1OCCN1CCOCC1)O2)C(=O)NS(=O)(=O)C1(COCCOC)CC1` (stereo partly drawn) [Example 65, (3aR,7S,10S,12R, 24aR)-7-tert-butyl-N-{(1R,2S)-2-ethenyl-1-[({1-[(2-methoxyethoxy)methyl]cyclopropyl}sulfonyl)carbamoyl]cyclopropyl}-19-[2-(morpholin-4-yl)ethoxy]-5,8-dioxo-1,2,3,3a,5,6,7,8,11, 12,20,21,22,23,24, 24a-hexadecahydro-10H-9,12-methanocyclopenta [18,19][1,10,3,6] dioxadiaza-cyclononadecino [11,12-b]quinoline-10-carboxamide] are 16 nM and 0.56 nM.
The like results for `C=C[C@@H]1C[C@]1(NC(=O)[C@@H]1C[C@@H]2CN1C(=O)[C@H](C1CCCC1)NC(=O)O[C@@H]1CCC[C@H]1CC/C=C/Cc1c(nc3ccccc3c1OCC(=O)O)O2)C(=O)NS(=O)(=O)C1CC1` [Example 66, {[(3aR,7S,10S,12R,21E,24aS)-7-cyclopentyl-10-({(1R,2S)-1-[(cyclopropylsulfonyl)carbamoyl]-2-ethenylcyclopropyl}carbamoyl)-5,8-dioxo-1,2,3,3a,5,6,7,8,11,12,20,23,24,24a-tetradecahydro-10H-9,12-methanocyclopenta[18,19][1,10,3,6]dioxadiazacyclononadecino[11,12-b]quinolin-19-yl]oxy}acetic acid] were, in that order, 25 nM and 0.077 nM.
The like results for `C=C[C@@H]1C[C@]1(NC(=O)[C@@H]1C[C@@H]2CN1C(=O)[C@H](C1CCCC1)NC(=O)O[C@@H]1CCC[C@H]1CC/C=C/Cc1c(nc3ccccc3c1OCC(=O)N1CCCC1)O2)C(=O)NS(=O)(=O)C1CC1` [Example 67, (3aR,7S,10S,12R,21E,24aS)-7-cyclopentyl-N-{(1R,2S)-1-[(cyclopropylsulfonyl)carbamoyl]-2-ethenylcyclopropyl}-5,8-dioxo-19-[2-oxo-2-(pyrrolidin-1-yl)ethoxy]-1,2,3,3a,5,6,7,8,11,12,20,23,24,24a-tetradecahydro-10H-9,12-methanocyclopenta[18,19][1,10,3,6]dioxadiazacyclononadecino[11,12-b]quinoline-10-carboxamide] were, in that order, 6.6 nM and 0.081 nM.
Regarding `C=C[C@@H]1C[C@]1(NC(=O)[C@@H]1C[C@@H]2CN1C(=O)[C@H](C1CCCC1)NC(=O)O[C@@H]1CCC[C@H]1CC/C=C/Cc1c(nc3ccccc3c1OCCCCO)O2)C(=O)NS(=O)(=O)C1CC1` [Example 68, (3aR,7S,10S,12R,21E,24aS)-7-cyclopentyl-N-{(1R,2S)-1-[(cyclopropylsulfonyl)carbamoyl]-2-ethenylcyclopropyl}-19-(4-hydroxybutoxy)-5,8-dioxo-1,2,3,3a,5,6,7,8,11,12,20,23,24,24a-tetradecahydro-10H-9,12-methanocyclopenta[18,19][1,10,3,6]dioxadiazacyclononadecino[11,12-b]quinoline-10-carboxamide], the Ki in experiment [1] was 1.6 nM; in experiment [2], 0.16 nM.
Take `C=C[C@@H]1C[C@]1(NC(=O)[C@@H]1C[C@@H]2CN1C(=O)[C@H](C1CCCC1)NC(=O)O[C@@H]1CCC[C@H]1CC/C=C/Cc1c(nc3ccccc3c1OCCO)O2)C(=O)NS(=O)(=O)C1CC1` [Example 69, (3aR,7S,10S,12R,21E,24aS)-7-cyclopentyl-N-{(1R,2S)-1-[(cyclopropylsulfonyl)carbamoyl]-2-ethenylcyclopropyl}-19-(2-hydroxyethoxy)-5,8-dioxo-1,2,3,3a,5,6,7,8,11,12,20,23,24,24a-tetradecahydro-10H-9,12-methanocyclopenta[18,19][1,10,3,6]dioxadiazacyclononadecino[11,12-b]quinoline-10-carboxamide]: the inhibition constant (Ki) was 1.8 nM in experiment [1] and under 0.016 nM in experiment [2].
The corresponding values for `C=C[C@@H]1C[C@]1(NC(=O)[C@@H]1C[C@@H]2CN1C(=O)[C@H](C(C)(C)C)NC(=O)O[C@@H]1CCC[C@H]1CC/C=C/Cc1c(nc3ccccc3c1OCCCO)O2)C(=O)NS(=O)(=O)C1CC1` [Example 70, (3aR,7S,10S,12R,21E,24aS)-7-tert-butyl-N-{(1R,2S)-1-[(cyclopropylsulfonyl)carbamoyl]-2-ethenylcyclopropyl}-19-(3-hydroxypropoxy)-5,8-dioxo-1,2,3,3a,5,6,7,8,11,12,20,23,24,24a-tetradecahydro-10H-9,12-methanocyclopenta[18,19][1,10,3,6]dioxadiazacyclononadecino[11,12-b]quinoline-10-carboxamide] are 0.59 nM and 0.066 nM.
The like results for `C=C[C@@H]1C[C@]1(NC(=O)[C@@H]1C[C@@H]2CN1C(=O)[C@H](C(C)(C)C)NC(=O)O[C@@H]1CCC[C@H]1CC/C=C/Cc1c(nc3ccccc3c1OCCCO)O2)C(=O)NS(=O)(=O)C1(C)CC1` [Example 71, (3aR,7S,10S,12R,21E,24aS)-7-tert-butyl-N-[(1R,2S)-2-ethenyl-1-{[(1-methylcyclopropyl)sulfonyl]carbamoyl}cyclopropyl]-19-(3-hydroxypropoxy)-5,8-dioxo-1,2,3,3a,5,6,7,8,11,12,20,23,24,24a-tetradecahydro-10H-9,12-methanocyclopenta[18,19][1,10,3,6]dioxadiazacyclononadecino[11,12-b]quinoline-10-carboxamide] were, in that order, 0.42 nM and under 0.016 nM.
The like results for `C=C[C@@H]1C[C@]1(NC(=O)[C@@H]1C[C@@H]2CN1C(=O)[C@H](C1CCCC1)NC(=O)O[C@@H]1CCC[C@H]1CC/C=C/Cc1c(nc3ccccc3c1OCCCO)O2)C(=O)NS(=O)(=O)C1CC1` [Example 72, (3aR,7S,10S,12R,21E,24aS)-7-cyclopentyl-N-{(1R,2S)-1-[(cyclopropylsulfonyl)carbamoyl]-2-ethenylcyclopropyl}-19-(3-hydroxypropoxy)-5,8-dioxo-1,2,3,3a,5,6,7,8,11,12,20,23,24,24a-tetradecahydro-10H-9,12-methanocyclopenta[18,19][1,10,3,6]dioxadiazacyclononadecino[11,12-b]quinoline-10-carboxamide] were, in that order, 1.1 nM and under 0.016 nM.

For orientation: Ki means a dissociation constant, usually derived from enzyme kinetics or from competition with a known ligand.

(Values after patent publication US9328138B2 (priority 2011, dated 2016).)
